The results in this text go back to ChEMBL document CHEMBL4219062, “Design, synthesis and evaluation of γ-turn mimetics as LSD1-selective inhibitors” (Bioorg Med Chem, 2018).

Assay [1] deals with T1, Amine oxidase [flavin-containing] A (Homo sapiens, UniProt P21397).
T1 sequence (P21397 whole entry): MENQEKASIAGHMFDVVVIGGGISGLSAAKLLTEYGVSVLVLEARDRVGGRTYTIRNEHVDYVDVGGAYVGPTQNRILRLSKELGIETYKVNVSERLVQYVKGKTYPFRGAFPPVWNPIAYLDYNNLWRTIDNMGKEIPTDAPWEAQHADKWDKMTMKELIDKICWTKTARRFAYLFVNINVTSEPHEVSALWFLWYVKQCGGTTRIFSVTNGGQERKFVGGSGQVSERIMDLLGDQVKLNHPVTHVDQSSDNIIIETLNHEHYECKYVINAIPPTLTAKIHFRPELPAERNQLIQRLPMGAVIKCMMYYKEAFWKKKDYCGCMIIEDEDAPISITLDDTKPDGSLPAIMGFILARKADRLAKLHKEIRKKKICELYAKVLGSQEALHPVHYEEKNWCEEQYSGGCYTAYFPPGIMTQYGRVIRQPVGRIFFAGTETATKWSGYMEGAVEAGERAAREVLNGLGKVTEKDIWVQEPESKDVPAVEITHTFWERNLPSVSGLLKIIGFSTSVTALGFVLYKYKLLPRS
The experiment in a line: biochemical.
Description: Inhibition of recombinant human MAO-A expressed in baculovirus infected BTI insect cells using (4S)-4,5-dihydro-2-(6-hydroxybenzothiazolyl)-4-thiazolecarboxylic acid as substrate measured after 60 mins by chemiluminescence assay

Assay [2] relates to A549. The experiment in a line: cells. Conditions: Homo sapiens, A549, 72 h.
Description: Growth inhibition of human A549 cells after 72 hrs by Alamarblue assay
Assay [3] has as its system A549. The experiment in a line: cells. To be noted: Homo sapiens, A549, 72 h, read-out: GI.
Assay [4] addresses T2, Amine oxidase [flavin-containing] B (Homo sapiens, UniProt P27338).
T2 sequence (P27338 whole entry): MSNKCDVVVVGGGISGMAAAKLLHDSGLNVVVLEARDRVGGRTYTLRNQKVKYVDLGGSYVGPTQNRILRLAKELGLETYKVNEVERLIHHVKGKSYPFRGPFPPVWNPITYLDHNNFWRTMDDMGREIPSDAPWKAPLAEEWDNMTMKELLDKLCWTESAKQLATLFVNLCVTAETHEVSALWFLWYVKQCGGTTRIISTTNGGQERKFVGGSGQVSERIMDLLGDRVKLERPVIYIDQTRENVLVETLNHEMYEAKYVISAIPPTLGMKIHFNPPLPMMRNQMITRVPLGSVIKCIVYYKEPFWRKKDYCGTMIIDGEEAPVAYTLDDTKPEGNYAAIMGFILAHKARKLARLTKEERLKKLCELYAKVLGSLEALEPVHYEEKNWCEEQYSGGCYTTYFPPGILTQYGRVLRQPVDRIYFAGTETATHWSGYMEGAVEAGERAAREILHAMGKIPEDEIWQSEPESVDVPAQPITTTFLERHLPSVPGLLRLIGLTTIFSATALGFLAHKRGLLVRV
The experiment in a line: biochemical.
Description: Inhibition of recombinant human MAO-B expressed in baculovirus infected BTI insect cells using (4S)-4,5-dihydro-2-(6-hydroxybenzothiazolyl)-4-thiazolecarboxylic acid as substrate measured after 60 mins by chemiluminescence assay

Assay [5] concerns A549. The experiment in a line: Cell cycle arrest in human A549 cells assessed as decrease in S population at 2 uM measured after 24 hrs by propidium iodide staining based flow cytometric analysis. Format: functional.
For assay [6], the system named is A549. The experiment in a line: Cell cycle arrest in human A549 cells assessed as accumulation at sub-G1 population at 6 to 8 uM by propidium iodide staining based flow cytometric analysis. Conditions: TDE = time-dependent effect. Format: functional.
The test system of assay [7] is A549. The experiment in a line: Cell cycle arrest in human A549 cells assessed as increase in G1 population at 2 uM measured after 24 hrs by propidium iodide staining based flow cytometric analysis. The assay is classed as functional.
Assay [8] concerns A549. Conditions: Homo sapiens, 10 uM.

The source made the active and inactive calls. The rule behind the calls is not given here. Where only a bound is given, the exact number is not on record here.

As for `O=C(N[C@@H](CCCCN[C@@H]1C[C@H]1c1ccccc1)C(=O)NCc1cccc(Cl)c1)c1ccc(-c2ccccc2)cc1`, the half-maximal inhibitory concentration (IC50) in assay [1] and in assay [4] was greater than 100 µM throughout. In the assay with A549 [2], this compound had a concentration for 50% growth inhibition (GI50) of 8.6 µM. In the assay on A549 [3], the inhibition of growth at 10 µM stood at 100%.
With `CNS(=O)(=O)c1cccc(-c2ccc([C@@H]3C[C@H]3NCCCCC3C(=O)N(Cc4ccccc4)CCN(c4ccccc4)C3=O)cc2)c1` (relative stereo), in the assay with A549 [3], the inhibition of growth at 10 µM was determined as 16%.
Turning to `O=C1C(CCCCN[C@@H]2C[C@H]2c2ccccc2)C(=O)N(c2ccc(-c3ccccc3)cc2)CCN1Cc1cccc(Cl)c1` (relative stereo), the IC50 in assay [1] and in assay [4] was greater than 100 µM throughout. In addition, the result in the assay with A549 [5] and in the assay with A549 [7] was Active. Moreover, the Activity entry in the assay on A549 [6] is “Tde”. Besides, in the assay with A549 [2], the GI50 was 5.8 µM. Besides, in the assay with A549 [3], the inhibition of growth at 10 µM was 100%.
Turning to `O=C(N[C@@H](CCCCN[C@@H]1C[C@H]1c1ccccc1)C(=O)NCc1ccccc1)c1ccccc1`, the “growth inhibition (GI)” value in the assay with A549 [8] was “inactive”.
Turning to `CNC(=O)c1cccc(-c2ccc([C@@H]3C[C@H]3NCCCCC3C(=O)N(Cc4cccc(Cl)c4)CCN(c4ccc(-c5ccccc5)cc4)C3=O)cc2)c1` (relative stereo), the inhibition of growth at 10 µM in the assay on A549 [3] came out at 26%.
As to `CNC(=O)c1cccc(-c2ccc([C@@H]3C[C@H]3NCCCCC3C(=O)N(Cc4ccccc4)CCN(c4ccccc4)C3=O)cc2)c1` (relative stereo), the inhibition of growth at 10 µM in the assay with A549 [3] is 26%.
Take `COc1cccc(-c2ccc([C@@H]3C[C@H]3NCCCCC3C(=O)N(Cc4ccccc4)CCN(c4ccccc4)C3=O)cc2)c1` (relative stereo): in the assay on A549 [3], the inhibition of growth at 10 µM came out at 16%.
